The subject of test [1] is spleen cells. The test is described as follows: Flow cytometry analysis of stem cell phenotypes in spleens on day 7. The class given is in vivo, mice. Conditions: 250 μg/kg. On the technique in general: Flow cytometry measures light scatter and fluorescence of single cells or particles in a stream.
Test [2] concerns CFU-GEMM / CFU-GM colony-forming cells. Briefly: CFU colony assay of peripheral blood on day 7 after 5 daily subcutaneous injections. The class given is in vivo, DBA/2J male mice. As to the method:
Mobilization of hematopoietic stem and progenitor cells from bone marrow into peripheral blood is important for tissue regeneration. However, this physiological mechanism is often insufficient, including in elderly patients and people with diabetes. In order to look at the ability of Compound X mobilized stem cells to mediate tissue regeneration, multiple in vivo injections of Compound X were administered. A group of DBA/2J male mice were injected subcutaneously for 5 consecutive days with 250 ug/kg Compound X in Saline. Another group of mice received injections of vehicle only. Peripheral blood from 3 mice from each of these groups was then harvested from the orbital plexus at 7 days post initial injection. Blood was also harvested and pooled from 3 naïve mice to serve as an additional control group. To determine mobilization of pluripotent colony-forming cells from bone marrow into peripheral blood, mononuclear cells obtained from blood were plated into MethoCult 3434 media (Stem Cell Technologies 03434). Briefly, peripheral blood from three mice was pooled, diluted (1:1, v/v) with 0.9% saline (APP Pharmaceutical) and layered (2:1, v/v) onto 1-Step™1.077 A (Accurate Chemicals AN224510) in 15-ml centrifuge tubes. Cells were centrifuged at 600×g for 20 min at room temperature. The mononuclear cells were harvested from the interface between the plasma layer and the 1-Step™ A solution using a 1-ml syringe and 16G blunt-end needle (Stem Cell Technologies 28120). The cells were transferred to 15-ml centrifuge tubes and washed twice in 1×PBS. The cells were placed into 35-mm Petri dishes at 100,000 cells per dish with 5 dishes per group. Cells incubated for 10 days in a 37° C. and 5% CO2 humidified incubator. CFU-GM colonies consisting of granulocytic and monocytic cells and CFU-GEMM colonies representing mixed cell populations of granulocytes, macrophages and erythroid cells were then scored using an inverted microscope. Blood was taken at Zeitgeber Time 4 (ZT4) which corresponded to the physiological time of cell emigration from bone marrow—the circadian stem cell mobilization peak.

[3] abbreviates: 250 ug/kg s.c. 5 consecutive days, day 7.
Where [4] appears, read: 250 ug/kg s.c. 5 consecutive days, day 7, individual dishes.
Where [5] appears, read: 250 ug/kg/day for 5 days, day 7.
[6] abbreviates: DBA mice, multiple s.c. 250 ug/kg.

Several values for one entry are separate records, joined by “and”; a condition that tells them apart may be missing. Equal entries are not always repeated. No end group written: not given here.

“FPHFDLSHGSAQV [Compound X, tridecapeptide that acts on stem cells]”: in test [1], the “accumulation of cells with stem cell phenotypes in the spleens” value is reported as “No accumulation”. In addition, in test [1] (spleen), the “CD34+ Flk-1+, Mean” value worked out at 0.03; the “CD34+ Flk-1−, Mean” value is recorded as 0.05; the “CD34− Flk-1+, Mean” value is listed as 0.38; the “CD150+ CD48−, Mean” value is 0.17. In addition, in test [1] (spleen), the “CD244+ CD48+, Mean” value turned out to be 0.78; the “Lin− Kit+ Sca-1+, Mean” value is reported as 0.07; the “Lin− Kit+ Sca-1−, Mean” value came to 0.50; the “Lin− Kit^low Sca-1+, Mean” value is on record as 0.17. In test [2] (setting [3]), the “CFU-GEMM AVG” value is given as 11.4 colonies/100,000 MNCs, the “CFU-GEMM Average” value is reported as 79.8 Colonies/ml of Peripheral Blood, the “CFU-GM AVG” value is listed as 12.4 colonies/100,000 MNCs and the “CFU-GM Average” value is 86.8 Colonies/ml of Peripheral Blood. For the same sequence, in test [2] (setting [4]), the “CFU-GEMM Colony #” value is 8 colonies/100,000 MNCs (2×) and 13 colonies/100,000 MNCs and 12 colonies/100,000 MNCs and 16 colonies/100,000 MNCs; the “CFU-GM Colony #” value was 13 colonies/100,000 MNCs (2×) and 14 colonies/100,000 MNCs (2×) and 8 colonies/100,000 MNCs. Moreover, in test [2] (setting [5]), the “number of circulating CFU-GM” value is reported as “did not change” and the “total CFU-GEMM number in circulation vs naïve or vehicle mice” value came out at 3 times higher. In test [2] (setting [6]), the “increase in CFU-GEMM number per ml of blood vs saline control group” value is given as 3.3 fold and the “increase in CFU-GEMM number per ml of blood vs untreated control group” value came out at 3.8 fold.

Values taken from US20140088006A1, “Stem Cell Mobilization and Tissue Repair and Regeneration” (Wellstat Therapeutics Corporation, priority 2011, published 2014).
